Measurements: ChEMBL document CHEMBL3046025, “Fungitoxic Properties of N-Phenylformamidoximes in Control of Benzimidazole-Resistant Isolates of Fungi” (1992)
The source made the active and inactive calls. The calls are words filed in the database; no cut-off is given here.

Tests used:
Cercospora beticola [1] = test: Ratio of EC50 for Benzimidalzole-resistant Cercospora beticola isolate 18-11 to EC50 for Benzimidalzole-resistant Cercospora beticola isole 28-8; type: functional
Cercospora beticola [2] = test: Antifungal activity against Benzimidalzole-resistant Cercospora beticola isolate 1-3 at 0.001 to 1000 ppm after 14 days by agar dilution method; type: functional, organism-based
Cercospora beticola [3] = test: Ratio of EC50 for Benzimidalzole-sensitive Cercospora beticola isolate 22-5 to EC50 for Benzimidalzole-resistant Cercospora beticola isole Cb-19; type: functional
Cercospora beticola [4] = test: Ratio of EC50 for Benzimidalzole-resistant Cercospora beticola isolate 6-13 to EC50 for Benzimidalzole-resistant Cercospora beticola isolate 18-2; type: functional
Botrytis cinerea [5] = test: Ratio of EC50 for Benzimidalzole-resistant Botryotinia fuckeliana isolate Bc-20 to EC50 for Benzimidalzole-resistant Botryotinia fuckeliana isolate Bc-31; type: functional
Botrytis cinerea [6] = test: Antifungal activity against Benzimidalzole-resistant Botryotinia fuckeliana isolate Bc-44 infected kidney bean leaves at 12.5 ppm 24 hr post-infection measured after 3 days; type: functional
Botrytis cinerea [7] = test: Antifungal activity against Benzimidalzole-resistant Botryotinia fuckeliana isolate Bc-20 at 0.001 to 1000 ppm after 3 days by agar dilution method; type: functional, organism-based
Botrytis cinerea [8] = test: Antifungal activity against Benzimidalzole-sensitive Botryotinia fuckeliana isolate Bc-9 infected compound-treated kidney bean leaves at 200 ppm after 4 days; type: functional
Cercospora beticola [9] = test: Ratio of EC50 for […] to EC50 for Benzimidalzole-resistant Cercospora beticola isole 28-8; type: functional
Cercospora beticola [10] = test: Antifungal activity against Benzimidalzole-sensitive Cercospora beticola isolate 22-5 at 0.001 to 1000 ppm after 14 days by agar dilution method; type: functional, organism-based
Cercospora beticola [11] = test: Ratio of EC50 for Benzimidalzole-sensitive Cercospora beticola isolate 24-3 to EC50 for Benzimidalzole-resistant Cercospora beticola isole 28-8; type: functional
Cercospora beticola [12] = test: Antifungal activity against Benzimidalzole-resistant Cercospora beticola isolate Cb-19 infected in sugar beet seedlings at 12.5 ppm treated as foliar application 7 days prior to inoculation; type: functional
Cercospora beticola [13] = test: Antifungal activity against Benzimidalzole-resistant Cercospora beticola isolate Cb-19 infected in sugar beet seedlings at 3.1 ppm treated as foliar application 7 days prior to inoculation; type: functional
Cercospora beticola [14] = test: Antifungal activity against Benzimidalzole-resistant Cercospora beticola isolate Cb-19 at 0.001 to 1000 ppm after 14 days by agar dilution method; type: functional, organism-based
Botrytis cinerea [15] = test: Antifungal activity against Benzimidalzole-resistant Botryotinia fuckeliana isolate Bc-44 infected kidney bean leaves at 3.1 ppm 24 hr post-infection measured after 3 days; type: functional
Cercospora beticola [16] = test: Antifungal activity against Benzimidalzole-resistant Cercospora beticola isolate 28-8 at 0.001 to 1000 ppm after 14 days by agar dilution method; type: functional, organism-based
Cercospora beticola [17] = test: Antifungal activity against Benzimidalzole-resistant Cercospora beticola isolate 18-2 infected in compound-treated sugar beet seedlings at 12.5 ppm after 12 days; type: functional
Botrytis cinerea [18] = test: Antifungal activity against Benzimidalzole-resistant Botryotinia fuckeliana isolate Bc-44 infected compound-treated kidney bean leaves at 3.1 ppm after 4 days; type: functional
Cercospora beticola [19] = test: Ratio of EC50 for […] to EC50 for Benzimidalzole-resistant Cercospora beticola isolate 49-4; type: functional
Cercospora beticola [20] = test: Antifungal activity against Benzimidalzole-resistant Cercospora beticola isolate 49-4 at 0.001 to 1000 ppm after 14 days by agar dilution method; type: functional, organism-based
Cercospora beticola [21] = test: Ratio of EC50 for Benzimidalzole-sensitive Cercospora beticola isolate 18-1 to EC50 for Benzimidalzole-resistant Cercospora beticola isole Cb-19; type: functional
Botrytis cinerea [22] = test: Antifungal activity against Benzimidalzole-resistant Botryotinia fuckeliana isolate Bc-44 infected kidney bean leaves at 50 ppm 24 hr post-infection measured after 3 days; type: functional
Cercospora beticola [23] = test: Ratio of EC50 for Benzimidalzole-sensitive Cercospora beticola isolate 18-1 to EC50 for Benzimidalzole-resistant Cercospora beticola isolate 49-4; type: functional
Cercospora beticola [24] = test: Antifungal activity against Benzimidalzole-sensitive Cercospora beticola isolate 24-3 at 0.001 to 1000 ppm after 14 days by agar dilution method; type: functional, organism-based
Cercospora beticola [25] = test: Antifungal activity against Benzimidalzole-resistant Cercospora beticola isolate 18-11 at 0.001 to 1000 ppm after 14 days by agar dilution method; type: functional, organism-based
Botrytis cinerea [26] = test: Antifungal activity against Benzimidalzole-resistant Botryotinia fuckeliana isolate Bc-40 at 0.001 to 1000 ppm after 3 days by agar dilution method; type: functional, organism-based
Botrytis cinerea [27] = test: Antifungal activity against Benzimidalzole-resistant Botryotinia fuckeliana isolate Bc-44 infected compound-treated kidney bean leaves at 200 ppm after 4 days; type: functional
Cercospora beticola [28] = test: Ratio of EC50 for Benzimidalzole-sensitive Cercospora beticola isolate 18-1 to EC50 for Benzimidalzole-resistant Cercospora beticola isolate 18-2; type: functional
Cercospora beticola [29] = test: Ratio of EC50 for Benzimidalzole-sensitive Cercospora beticola isolate 22-5 to EC50 for Benzimidalzole-resistant Cercospora beticola isolate 1-3; type: functional
Cercospora beticola [30] = test: Ratio of EC50 for Benzimidalzole-sensitive Cercospora beticola isolate 24-3 to EC50 for Benzimidalzole-resistant Cercospora beticola isole Cb-19; type: functional
Botrytis cinerea [31] = test: Antifungal activity against Benzimidalzole-resistant Botryotinia fuckeliana isolate Bc-44 infected kidney bean leaves at 200 ppm 24 hr post-infection measured after 3 days; type: functional
Botrytis cinerea [32] = test: Antifungal activity against Benzimidalzole-sensitive Botryotinia fuckeliana isolate Bc-9 infected compound-treated kidney bean leaves at 50 ppm after 4 days; type: functional
Cercospora beticola [33] = test: Ratio of EC50 for Benzimidalzole-resistant Cercospora beticola isolate 6-13 to EC50 for Benzimidalzole-resistant Cercospora beticola isole Cb-19; type: functional
Cercospora beticola [34] = test: Antifungal activity against Benzimidalzole-resistant Cercospora beticola isolate Cb-19 infected in sugar beet seedlings at 50 ppm treated as foliar application 7 days prior to inoculation; type: functional
Cercospora beticola [35] = test: Antifungal activity against Benzimidalzole-resistant Cercospora beticola isolate 18-2 infected in compound-treated sugar beet seedlings at 200 ppm after 12 days; type: functional
Botrytis cinerea [36] = test: Antifungal activity against Benzimidalzole-resistant Botryotinia fuckeliana isolate Bc-44 at 0.001 to 1000 ppm after 3 days by agar dilution method; type: functional, organism-based
Cercospora beticola [37] = test: Antifungal activity against Benzimidalzole-resistant Cercospora beticola isolate Cb-19 infected in compound-treated sugar beet seedlings at 50 ppm after 12 days; type: functional
Cercospora beticola [38] = test: Ratio of EC50 for Benzimidalzole-resistant Cercospora beticola isolate 18-11 to EC50 for Benzimidalzole-resistant Cercospora beticola isolate 49-4; type: functional
Cercospora beticola [39] = test: Antifungal activity against Benzimidalzole-resistant Cercospora beticola isolate Cb-19 infected in sugar beet seedlings at 200 ppm 24 hr-post inoculation; type: functional
Cercospora beticola [40] = test: Antifungal activity against Benzimidalzole-resistant Cercospora beticola isolate Cb-19 infected in sugar beet seedlings at 3.1 ppm 24 hr-post inoculation; type: functional
Cercospora beticola [41] = test: Ratio of EC50 for Benzimidalzole-resistant Cercospora beticola isolate 20-2 to EC50 for Benzimidalzole-resistant Cercospora beticola isolate 1-3; type: functional
Botrytis cinerea [42] = test: Antifungal activity against Benzimidalzole-resistant Botryotinia fuckeliana isolate Bc-44 infected kidney bean leaves at 200 ppm applied as soil drench 3 days prior to inoculation; type: functional
Cercospora beticola [43] = test: Antifungal activity against Benzimidalzole-resistant Cercospora beticola isolate 6-13 at 0.001 to 1000 ppm after 14 days by agar dilution method; type: functional, organism-based
Cercospora beticola [44] = test: Antifungal activity against Benzimidalzole-resistant Cercospora beticola isolate Cb-19 infected in compound-treated sugar beet seedlings at 3.1 ppm after 12 days; type: functional

C#CCOc1cc(N/C=N/OC)cc(Cl)c1OCC#C
Ratio EC50 (Cercospora beticola [1]): > 1000 | Activity (Cercospora beticola [2]): Active | Ratio EC50 (Cercospora beticola [3]): > 1000 | Ratio EC50 (Cercospora beticola [4]): > 1000 | Ratio EC50 (Botrytis cinerea [5]): > 1000 | Activity (Botrytis cinerea [6]): 100% | Activity (Botrytis cinerea [7]): inactive | Activity (Botrytis cinerea [8]): 7% | Ratio EC50 (Cercospora beticola [9]): > 1000 | Activity (Cercospora beticola [10]): inactive | Ratio EC50 (Cercospora beticola [11]): > 1000 | Activity (Cercospora beticola [12]): 80% | Activity (Cercospora beticola [13]): 58% | Activity (Cercospora beticola [14]): Active | Activity (Botrytis cinerea [15]): 91% | Activity (Cercospora beticola [16]): Active | Activity (Cercospora beticola [17]): 100% | Activity (Botrytis cinerea [18]): 100% | Ratio EC50 (Cercospora beticola [19]): > 1000 | Activity (Cercospora beticola [20]): Active | Ratio EC50 (Cercospora beticola [21]): > 1000 | Activity (Botrytis cinerea [22]): 100% | Ratio EC50 (Cercospora beticola [23]): > 1000 | Activity (Cercospora beticola [24]): inactive | Activity (Cercospora beticola [25]): inactive | Activity (Botrytis cinerea [26]): inactive | Activity (Botrytis cinerea [27]): 100% | Ratio EC50 (Cercospora beticola [28]): > 1000 | Ratio EC50 (Cercospora beticola [29]): > 1000 | Ratio EC50 (Cercospora beticola [30]): > 1000 | Activity (Botrytis cinerea [31]): 100% | Activity (Botrytis cinerea [32]): 0% | Ratio EC50 (Cercospora beticola [33]): > 1000 | Activity (Cercospora beticola [34]): 100% | Activity (Cercospora beticola [35]): 100% | Activity (Botrytis cinerea [36]): Active | Activity (Cercospora beticola [37]): 100% | Ratio EC50 (Cercospora beticola [38]): > 1000 | Activity (Cercospora beticola [39]): 100% | Activity (Cercospora beticola [40]): 54% | Ratio EC50 (Cercospora beticola [41]): > 1000 | Activity (Botrytis cinerea [42]): 77% | Activity (Cercospora beticola [43]): inactive | Activity (Cercospora beticola [44]): 94%

C#CCOc1c(Cl)cc(N/C=N/OC)cc1Cl
Ratio EC50 (Cercospora beticola [1]): > 1000 | Activity (Cercospora beticola [2]): Active | Ratio EC50 (Cercospora beticola [3]): > 1000 | Ratio EC50 (Cercospora beticola [4]): > 1000 | Ratio EC50 (Botrytis cinerea [5]): > 1000 | Activity (Botrytis cinerea [6]): 93% | Activity (Botrytis cinerea [7]): inactive | Activity (Botrytis cinerea [8]): 8% | Ratio EC50 (Cercospora beticola [9]): > 1000 | Activity (Cercospora beticola [10]): inactive | Ratio EC50 (Cercospora beticola [11]): > 1000 | Activity (Cercospora beticola [12]): 93% | Activity (Cercospora beticola [13]): 40% | Activity (Cercospora beticola [14]): Active | Activity (Botrytis cinerea [15]): 73% | Activity (Cercospora beticola [16]): Active | Activity (Cercospora beticola [17]): 94% | Activity (Botrytis cinerea [18]): 95% | Ratio EC50 (Cercospora beticola [19]): > 1000 | Activity (Cercospora beticola [20]): Active | Ratio EC50 (Cercospora beticola [21]): > 1000 | Activity (Botrytis cinerea [22]): 100% | Ratio EC50 (Cercospora beticola [23]): > 1000 | Activity (Cercospora beticola [24]): inactive | Activity (Cercospora beticola [25]): inactive | Activity (Botrytis cinerea [26]): inactive | Activity (Botrytis cinerea [27]): 100% | Ratio EC50 (Cercospora beticola [28]): > 1000 | Ratio EC50 (Cercospora beticola [29]): > 1000 | Ratio EC50 (Cercospora beticola [30]): > 1000 | Activity (Botrytis cinerea [31]): 100% | Activity (Botrytis cinerea [32]): 5% | Ratio EC50 (Cercospora beticola [33]): > 1000 | Activity (Cercospora beticola [34]): 99% | Activity (Cercospora beticola [35]): 100% | Activity (Botrytis cinerea [36]): Active | Activity (Cercospora beticola [37]): 100% | Ratio EC50 (Cercospora beticola [38]): > 1000 | Activity (Cercospora beticola [39]): 100% | Activity (Cercospora beticola [40]): 44% | Ratio EC50 (Cercospora beticola [41]): > 1000 | Activity (Botrytis cinerea [42]): 7% | Activity (Cercospora beticola [43]): inactive | Activity (Cercospora beticola [44]): 91%
